{"source": "patent US20050019746A1", "about": "“Apoptosis-related kinase/GPCRs” (EiRx Therapeutics Limited, priority 2003, published 2005)", "format_in_all_cases": "cell-based, human", "key": {"[1]": {"test_system": "SKOV3 cells", "assay": "10-14 day Clonagenicity Assay (MTT), SKOV3", "settings": "for percentage survival relative to the missense, n = 1: independent experiment n = 1, dilution point of maximum toxicity; for percentage survival relative to the missense, n = 3: independent experiment n = 3, dilution point of maximum toxicity", "source_text": "(§1) The Clonagenicity Assay represents a Cell Viability Screen that allows assessment of a cytotoxic insult at a variety of seed densities of cancer cell lines over an extended period of logarithmic growth, such that the definitive effect of the test substance can be accurately quantified. In this instance, the ‘cytotoxic insult’ to be tested involves the transfection of siRNA Oligomers to knockdown the expression of novel target Kinases and GPCRs as outlined previously. Cell number is quantified 10-14 days post siRNA transfection by MTT conversion as described in detail in Example 6.\n(§2) The Clonagenicity Assay is optimised for each cell line examined with respect to seed number. The seed number varies for each cell line and accounts for the differences in cell size, growth rate and sensitivity to transfection-induced toxicity for each cell line pursued. Cells lines given as models for this example include HCT15, MCF7, A549, SKOV3, DU145, U251, PC3, A498 and HeLa. The siRNA oligo to Survivin serves as a positive control for toxicity in this assay and the missense control oligomer acts as a negative control as described in detail in Examples 5 and 6. The c-Raf, BCL2 and PI3K siRNA oligomers serve as additional controls as previously mentioned. The Clonagenicity assay is performed as outlined below.\n(§3) Cells are seeded into a 96-well plate as described below and allowed to adhere overnight at 37° C. in a humidified atmosphere containing 5% CO2 in air. Wells are seeded with an appropriate cell number (cell line dependent) in Column 1 of the 96 well plates and this cell suspension is diluted 1 in 2 across the 96 well plates from Column 1 through to 6 (represented on the x-axis in results). Cells are next transfected with siRNA Oligomers, at a concentration of 2 μg/ml, against the genes of interest. Transfections continue for 4 hrs after which the transfection solution is removed and cells are refed with fresh medium and allow to incubate overnight. An additional media change@24 hrs post transfection is made to minimise toxicity of the transfection reagent. Cells are subsequently incubated for a 10-14 Day period post transfection at a 37° C. incubation as described above. Medium is renewed weekly following which MTT quantification is performed as described in Example 5.\n(§4) To be considered cytotoxic, the siRNA Oligo against the gene target must induce a decreased viability in a cell line across at least 2 seed densities in the clonagenicity assay, such that a significant difference between the target gene and MS is observed i.e. no crossing of the Standard Error bars is detected. The average percentage viability, relative to missense, is recorded for the dilution point at which Maximum Toxicity is induced is recorded in Table 13.\n(§5) Table 13 Clonagenicity Assay—This table gives the average percentage survival of the indicated cell lines relative to the missense in a clonagenicity assay, over 3 independent experiments. As an internal reference, the known survival gene ‘Survivin’, BCL2, c-Raf and PI3KR1 was also targeted by siRNA. When no Cytotoxic response is detected ‘-’ is recorded."}, "[2]": {"test_system": "A498 cells", "assay": "10-14 day Clonagenicity Assay (MTT), A498", "settings": "for percentage survival relative to the missense, n = 3: independent experiment n = 3, dilution point of maximum toxicity; for percentage survival relative to the missense, n = 1: independent experiment n = 1, dilution point of maximum toxicity", "source_text": "as §1, §2, §3, §4, §5"}, "[3]": {"test_system": "U251 cells", "assay": "10-14 day Clonagenicity Assay (MTT), U251", "settings": "for percentage survival relative to the missense, n = 1 / percentage survival relative to the missense, n = 3 / percentage survival relative to the missense, n = 2: U251, clonagenicity assay, dilution point of maximum toxicity; for percentage survival relative to the missense, n = 1: independent experiment n = 1; for percentage survival relative to the missense, n = 3: independent experiment n = 3; for percentage survival relative to the missense, n = 2: independent experiment n = 2", "source_text": "as §1, §2, §3\nNote seed density decreases from 3.5 to 0.1×10^3 cells on the x-axis and the y-axis represents cell number as quantified by MTT conversion, 10-14 days post transfection. This decrease is substantially greater that with the apoptosis gene, Survivin. […] Note seed density decreases from 3.5 to 0.1×10^3 cells on the x-axis and the y-axis represents cell number as quantified by MTT conversion, 10-14 days post transfection.\nas §4, §5"}, "[4]": {"test_system": "A549 cells", "assay": "10-14 day Clonagenicity Assay (MTT), A549", "settings": "for percentage survival relative to the missense, n = 3: independent experiment n = 3, dilution point of maximum toxicity; for percentage survival relative to the missense, n = 1: independent experiment n = 1, dilution point of maximum toxicity", "source_text": "as §1, §2, §3, §4, §5"}, "[5]": {"test_system": "DU145 cells", "assay": "10-14 day Clonagenicity Assay (MTT), DU145", "settings": "for percentage survival relative to the missense, n = 3: independent experiment n = 3, dilution point of maximum toxicity", "source_text": "as §1, §2, §3, §4, §5"}, "[6]": {"test_system": "PC3 cells", "assay": "10-14 day Clonagenicity Assay (MTT), PC3", "settings": "independent experiment n = 3, dilution point of maximum toxicity", "source_text": "as §1, §2, §3, §4, §5"}, "[7]": {"test_system": "HCT15 cells", "assay": "10-14 day Clonagenicity Assay (MTT), HCT15", "settings": "independent experiment n = 1, dilution point of maximum toxicity", "source_text": "as §1, §2, §3, §4, §5"}}, "data": [{"substance": "siRNA PI3KR1: control siRNA, sense AUGAUCGAUGUGCACGUUUtt, antisense AAACGUGCACAUCGAUCAUtt (sense AUGAUCGAUGUGCACGUUUTT; antisense AAACGUGCACAUCGAUCAUTT; chemistry not given here) [reference compound]", "values": [{"measurement": "percentage survival relative to the missense, n = 1", "setting": "[1]", "result": 55.3, "unit": "%"}, {"measurement": "percentage survival relative to the missense, n = 3", "setting": "[1]", "result": 41.7, "unit": "%"}, {"measurement": "percentage survival relative to the missense, n = 3", "setting": "[2]", "result": 10, "unit": "%"}, {"measurement": "percentage survival relative to the missense, n = 1", "setting": "[3]", "result": 56.3, "unit": "%"}, {"measurement": "percentage survival relative to the missense, n = 3", "setting": "[3]", "result": 21.4, "unit": "%"}, {"measurement": "percentage survival relative to the missense, n = 3", "setting": "[4]", "result": 38.3, "unit": "%"}, {"measurement": "percentage survival relative to the missense, n = 3", "setting": "[5]", "result": 44.8, "unit": "%"}]}, {"substance": "MPSK1 SEQ 2 (sense GCCGACAUGCAUCGCCUCUTT; antisense AGAGGCGAUGCAUGUCGGCTT; chemistry not given here)", "values": [{"measurement": "percentage survival relative to the missense, n = 3", "setting": "[1]", "result": 73.8, "unit": "%"}, {"measurement": "percentage survival relative to the missense, n = 1", "setting": "[2]", "result": 39.3, "unit": "%"}, {"measurement": "percentage survival relative to the missense, n = 3", "setting": "[2]", "result": 8.9, "unit": "%"}, {"measurement": "percentage survival relative to the missense, n = 3", "setting": "[6]", "result": 16.7, "unit": "%"}, {"measurement": "percentage survival relative to the missense, n = 3", "setting": "[3]", "result": 59.3, "unit": "%"}, {"measurement": "percentage survival relative to the missense, n = 1", "setting": "[4]", "result": 39.1, "unit": "%"}, {"measurement": "percentage survival relative to the missense, n = 3", "setting": "[4]", "result": 26.1, "unit": "%"}, {"measurement": "percentage survival relative to the missense, n = 3", "setting": "[5]", "result": 63.4, "unit": "%"}]}, {"substance": "siRNA FLJ13351: sense CACCAAUUAGUUCAAAGCUtt, antisense AGCUUUGAACUAAUUGGUGtt (sense CACCAAUUAGUUCAAAGCUTT; antisense AGCUUUGAACUAAUUGGUGTT; chemistry not given here)", "values": [{"measurement": "viability/cytotoxicity in the Clonagenicity Assay", "setting": "[3]; U251, 10-14 days post transfection, MTT, FIG. 35", "result": "does not induce cytotoxicity"}]}, {"substance": "MKNK SEQ 2 (sense AUUGCAAGGAGGUUCCAUCTT; antisense GAUGGAACCUCCUUGCAAUTT; chemistry not given here)", "values": [{"measurement": "percentage survival relative to the missense, n = 3", "setting": "[1]", "result": 47.6, "unit": "%"}, {"measurement": "percentage survival relative to the missense, n = 1", "setting": "[2]", "result": 56.2, "unit": "%"}, {"measurement": "percentage survival relative to the missense, n = 3", "setting": "[2]", "result": 6, "unit": "%"}, {"measurement": "percentage survival relative to the missense, n = 3", "setting": "[6]", "result": 39.5, "unit": "%"}, {"measurement": "percentage survival relative to the missense, n = 2", "setting": "[3]", "result": 43.6, "unit": "%"}, {"measurement": "percentage survival relative to the missense, n = 3", "setting": "[3]", "result": 52.1, "unit": "%"}, {"measurement": "percentage survival relative to the missense, n = 3", "setting": "[4]", "result": 54.8, "unit": "%"}, {"measurement": "percentage survival relative to the missense, n = 3", "setting": "[5]", "result": 53.6, "unit": "%"}]}, {"substance": "CNK/PRK SEQ 2 (sense CAGAAAGACUGUGCACUACTT; antisense GUAGUGCACAGUCUUUCUGTT; chemistry not given here)", "values": [{"measurement": "percentage survival relative to the missense, n = 1", "setting": "[1]", "result": 65.7, "unit": "%"}, {"measurement": "percentage survival relative to the missense, n = 3", "setting": "[1]", "result": 72.2, "unit": "%"}, {"measurement": "percentage survival relative to the missense, n = 1", "setting": "[2]", "result": 20, "unit": "%"}, {"measurement": "percentage survival relative to the missense, n = 3", "setting": "[2]", "result": 8.2, "unit": "%"}, {"measurement": "percentage survival relative to the missense, n = 3", "setting": "[6]", "result": 28.3, "unit": "%"}, {"measurement": "percentage survival relative to the missense, n = 1", "setting": "[3]", "result": 35.2, "unit": "%"}, {"measurement": "percentage survival relative to the missense, n = 3", "setting": "[3]", "result": 57.5, "unit": "%"}, {"measurement": "percentage survival relative to the missense, n = 1", "setting": "[4]", "result": 62.5, "unit": "%"}, {"measurement": "percentage survival relative to the missense, n = 3", "setting": "[4]", "result": 25.6, "unit": "%"}]}, {"substance": "PSKH1 SEQ 2 (sense UUGGCCGAGGCAGCUUCAGTT; antisense CUGAAGCUGCCUCGGCCAATT; chemistry not given here)", "values": [{"measurement": "percentage survival relative to the missense, n = 1", "setting": "[1]", "result": 42.3, "unit": "%"}, {"measurement": "percentage survival relative to the missense, n = 3", "setting": "[1]", "result": 45.1, "unit": "%"}, {"measurement": "percentage survival relative to the missense, n = 1", "setting": "[2]", "result": 36, "unit": "%"}, {"measurement": "percentage survival relative to the missense, n = 3", "setting": "[2]", "result": 6, "unit": "%"}, {"measurement": "percentage survival relative to the missense, n = 3", "setting": "[6]", "result": 21.8, "unit": "%"}, {"measurement": "percentage survival relative to the missense, n = 1", "setting": "[3]", "result": 52.1, "unit": "%"}, {"measurement": "percentage survival relative to the missense, n = 2", "setting": "[3]", "result": 50.7, "unit": "%"}, {"measurement": "percentage survival relative to the missense, n = 3", "setting": "[3]", "result": 34.1, "unit": "%"}, {"measurement": "percentage survival relative to the missense, n = 1", "setting": "[4]", "result": 52.3, "unit": "%"}, {"measurement": "percentage survival relative to the missense, n = 3", "setting": "[4]", "result": 28, "unit": "%"}, {"measurement": "percentage survival relative to the missense, n = 3", "setting": "[5]", "result": 35.2, "unit": "%"}]}, {"substance": "CNK/PRK (sense UCGUAGUGCUUGUACUUACtt; antisense GUAAGUACAAGCACUACGAtt; as printed in the source, key not given here)", "values": [{"measurement": "percentage survival relative to the missense, n = 1", "setting": "[1]", "result": 13.8, "unit": "%"}, {"measurement": "percentage survival relative to the missense, n = 3", "setting": "[1]", "result": 50.1, "unit": "%"}, {"measurement": "percentage survival relative to the missense, n = 1", "setting": "[7]", "result": 75.9, "unit": "%"}, {"measurement": "percentage survival relative to the missense, n = 1", "setting": "[2]", "result": 9.5, "unit": "%"}, {"measurement": "percentage survival relative to the missense, n = 3", "setting": "[2]", "result": 7.2, "unit": "%"}, {"measurement": "percentage survival relative to the missense, n = 1", "setting": "[3]", "result": 48.8, "unit": "%"}, {"measurement": "percentage survival relative to the missense, n = 3", "setting": "[3]", "result": 44.5, "unit": "%"}, {"measurement": "percentage survival relative to the missense, n = 1", "setting": "[5]; independent experiment n = 1, dilution point of maximum toxicity", "result": 46.1, "unit": "%"}, {"measurement": "percentage survival relative to the missense, n = 2", "setting": "[5]; independent experiment n = 2, dilution point of maximum toxicity", "result": 39, "unit": "%"}, {"measurement": "percentage survival relative to the missense, n = 3", "setting": "[5]", "result": 16.8, "unit": "%"}]}]}
